Results taken from publication PMC5018819 (Scientific Reports, 2016).
Like-named read-outs stand apart in the source and are kept apart here.

Legend:
[1] = system: P. falciparum; design: method as in PMID 25089811; conditions: blood stages of the parasite, in vitro; read-out: IC50 against P. falciparum; cited from earlier work
[2] = molecular target: T1, PfCK (Plasmodium falciparum, UniProt Q8IM71); assay: Ki determination and mode of inhibition; format: biochemical
T1 construct: made in house
T1 sequence (Q8IM71 1-440): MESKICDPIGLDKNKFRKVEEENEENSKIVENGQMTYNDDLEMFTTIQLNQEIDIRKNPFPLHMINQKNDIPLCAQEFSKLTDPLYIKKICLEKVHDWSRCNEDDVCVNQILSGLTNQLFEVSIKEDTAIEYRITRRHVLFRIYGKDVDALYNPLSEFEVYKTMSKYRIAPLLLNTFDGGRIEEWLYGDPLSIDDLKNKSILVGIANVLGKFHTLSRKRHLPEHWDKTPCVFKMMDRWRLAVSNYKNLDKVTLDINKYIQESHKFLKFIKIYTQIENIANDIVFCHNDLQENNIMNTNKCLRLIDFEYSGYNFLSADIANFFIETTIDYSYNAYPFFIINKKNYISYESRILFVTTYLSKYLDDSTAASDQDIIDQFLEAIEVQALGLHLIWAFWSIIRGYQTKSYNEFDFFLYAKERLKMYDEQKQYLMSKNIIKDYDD
Method: (§1) A continuous spectrophotometric 96-well plate assay was established for CK and EK activity based on an assay described. […] The reaction was initiated by addition of enzyme or substrate, as appropriate, and the rate of reaction was monitored by following the decrease in absorbance at 341 nm for 10 min at room temperature using a Thermo Multiska spectrophotometer. Experiments were carried out to ensure that coupling enzymes were not rate-limiting under any of the conditions used and control experiments lacking substrates and/or enzyme were carried out to correct for any background rate.
(§2) Activity was measured at 3–4 different concentrations of inhibitor and a fixed concentration of one substrate (as specified in the standard assay) while the second substrate was varied. GraphPad Prism 6 (GraphPad Software Inc.) was used to fit data to different inhibition models with the best fit being determined by Aike’s Informative Criteria. Kis were estimated from the best-fit model and results were reinforced by linear re-plots of the data (Lineweaver Burke, Dixon, s/v against I)[38].

[3] = molecular target: T2, HsCKα1 (Homo sapiens, UniProt P35790); assay: Ki determination and mode of inhibition; format: biochemical; conditions: for α, HsCKα1, ATP / α, HsCKα1, Cho: alpha factor of mixed inhibition
T2 construct: made in house
T2 sequence (P35790 whole entry): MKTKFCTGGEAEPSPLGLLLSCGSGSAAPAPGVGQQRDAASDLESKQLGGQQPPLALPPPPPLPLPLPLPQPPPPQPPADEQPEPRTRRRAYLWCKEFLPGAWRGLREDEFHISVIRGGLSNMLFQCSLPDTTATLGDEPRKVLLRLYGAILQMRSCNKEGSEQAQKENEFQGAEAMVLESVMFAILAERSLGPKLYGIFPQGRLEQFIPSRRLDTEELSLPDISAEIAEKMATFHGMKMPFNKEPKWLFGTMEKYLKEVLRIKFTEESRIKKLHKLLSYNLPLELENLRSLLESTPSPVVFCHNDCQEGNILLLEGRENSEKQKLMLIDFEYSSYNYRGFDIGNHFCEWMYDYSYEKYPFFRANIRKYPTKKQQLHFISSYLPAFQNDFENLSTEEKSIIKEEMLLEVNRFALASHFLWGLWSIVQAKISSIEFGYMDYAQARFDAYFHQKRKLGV
Method: as §1, §2

[4] = ATP as variable substrate, read-out: Ki, PfCK, ATP
[5] = Etn as variable substrate, read-out: Ki, PfCK, Etn
[6] = alpha factor of mixed inhibition, Cho as variable substrate
[7] = competitive inhibition, approximate value, read-out: Ki, PfCK, with respect to Etn
[8] = read-out: Ki, PfCK, Cho, Cho as variable substrate
[9] = read-out: Ki, PfCK, against Cho, mixed inhibition, approximate value
[10] = ATP as variable substrate, read-out: Ki, HsCKα1, ATP
[11] = read-out: Ki, HsCKα1, Cho, Cho as variable substrate
[12] = read-out: Ki, HsCKα1, with respect to Cho, mixed inhibition, approximate value

SMILES	IC50 [1]	mode of inhibition, PfCK, ATP ([2]; ATP as variable substrate)	Ki [2, 4]	mode of inhibition, PfCK, Cho ([2]; Cho as variable substrate)	mode of inhibition, PfCK, Etn ([2]; Etn as variable substrate)	Ki [2, 5]	α, PfCK, Cho [2, 6]	Ki [2, 7]	Ki [2, 8]	Ki [2, 9]	mode of inhibition, HsCKα1, ATP ([3]; ATP as variable substrate)	Ki [3, 10]	mode of inhibition, HsCKα1, Cho ([3]; Cho as variable substrate)	α, HsCKα1, ATP ([3]; ATP as variable substrate)	α, HsCKα1, Cho ([3]; Cho as variable substrate)	Ki ([3]; mixed inhibition, approximate value, read-out: Ki, HsCKα1, with respect to ATP)	Ki [3, 11]	Ki [3, 12]	α, PfCK, ATP ([2]; alpha factor of mixed inhibition, ATP as variable substrate)
CN(C)c1cc[n+](Cc2ccc(-c3ccc(C[n+]4ccc(N5CCCC5)cc4)cc3)cc2)cc1.[Br-].[Br-] [BR23]	0.003 µM	Competitive	116 µM	Mixed	Competitive	4.1 µM	3.915	~4 µM	38.2 µM	~35 µM	Mixed	3.7 µM	Mixed	0.73	59	~4 µM	0.114 µM	~0.1 µM	
CN(C)c1cc[n+](Cc2ccc(CCCCc3ccc(C[n+]4ccc(N5CCCC5)cc4)cc3)cc2)cc1.[Br-].[Br-] [BR25]	0.002 µM	Mixed	65.5 µM	Mixed	Competitive	4 µM	2.025	~4 µM	31.9 µM	~35 µM	Mixed	4.1 µM	Mixed	0.49	139		0.1 µM	~0.1 µM	2.37
